According to patent US20230183218A1, “CONDENSED SUBSTITUTED HYDROPYRROLES AS ANTAGONISTS OF THE MUSCARINIC ACETYLCHOLINE RECEPTOR M4” (Vanderbilt University, priority 2020, published 2023):

How the values were obtained:
Human M4 = target: T1, Human M4 (Homo sapiens, UniProt P08173); assay: mAChR M4 cell-based functional assay (calcium flux, antagonist mode vs EC80 acetylcholine), human M4/Gqi5/CHO-K1 cells; details: for remaining activity at 30 µM: CHO-K1, % ACh maximum at 30 μM, human M4, read-out: Human M4 Emin (%); for IC50: decrease of response elicited by EC80 acetylcholine, human M4/Gqi5 CHO-K1 cells
T1 construct: expressed in transfected cells; host or cells: CHO-K1 (ATCC), stably co-expressing chimeric G protein Gqi5
T1 sequence (P08173 1-479): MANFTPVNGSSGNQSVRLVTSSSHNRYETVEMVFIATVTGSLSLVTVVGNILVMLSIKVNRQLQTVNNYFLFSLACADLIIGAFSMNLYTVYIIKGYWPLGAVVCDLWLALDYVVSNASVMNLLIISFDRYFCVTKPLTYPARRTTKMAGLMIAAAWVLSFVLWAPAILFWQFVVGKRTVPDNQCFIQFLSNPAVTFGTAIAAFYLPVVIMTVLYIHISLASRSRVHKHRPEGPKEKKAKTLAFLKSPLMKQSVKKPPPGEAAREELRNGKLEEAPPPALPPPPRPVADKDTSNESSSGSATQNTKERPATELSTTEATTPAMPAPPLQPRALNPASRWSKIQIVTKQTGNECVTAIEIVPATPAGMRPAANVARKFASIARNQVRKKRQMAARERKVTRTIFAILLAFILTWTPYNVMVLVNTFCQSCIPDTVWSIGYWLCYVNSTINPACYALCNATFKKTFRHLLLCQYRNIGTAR
Outline: (§1)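 CHO-K1 cells stably expressing human or rat M4 with Gqi5, Fluo-4 loaded; calcium measured by fluorescence ratio on FDSS. Compound added, then EC20 acetylcholine at 143 s and EC80 at 268 s; IC50 from decrease of EC80 response, four-parameter logistic fit.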

Rat M4 = target: T2, Rat M4 (Rattus norvegicus, UniProt P08485); assay: mAChR M4 cell-based functional assay (calcium flux, antagonist mode vs EC80 acetylcholine), rat M4/Gqi5/CHO-K1 cells; details: for remaining activity at 30 µM: CHO-K1, % ACh maximum at 30 μM, rat M4, read-out: Rat M4 Emin (%); for IC50: decrease of response elicited by EC80 acetylcholine, rat M4/Gqi5 CHO-K1 cells
T2 construct: expressed in transfected cells; host or cells: CHO-K1 (ATCC), stably co-expressing chimeric G protein Gqi5
T2 sequence (P08485 1-478): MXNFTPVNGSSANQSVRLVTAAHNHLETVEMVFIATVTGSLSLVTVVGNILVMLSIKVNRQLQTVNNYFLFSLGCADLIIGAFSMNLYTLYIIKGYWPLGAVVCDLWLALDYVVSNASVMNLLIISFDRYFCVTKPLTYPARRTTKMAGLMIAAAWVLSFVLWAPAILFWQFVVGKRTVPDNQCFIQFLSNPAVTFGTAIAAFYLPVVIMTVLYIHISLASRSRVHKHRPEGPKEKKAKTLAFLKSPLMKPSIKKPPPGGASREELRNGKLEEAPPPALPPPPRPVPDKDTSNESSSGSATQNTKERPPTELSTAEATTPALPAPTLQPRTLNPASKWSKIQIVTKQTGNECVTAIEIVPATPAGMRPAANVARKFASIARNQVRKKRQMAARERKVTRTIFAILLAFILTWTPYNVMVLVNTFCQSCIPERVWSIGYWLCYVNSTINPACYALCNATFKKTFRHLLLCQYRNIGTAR
Outline: as §1

Structure (SMILES) | remaining activity at 30 µM (Human M4) | IC50 (Human M4) | remaining activity at 30 µM (Rat M4) | IC50 (Rat M4)
CC(C)(C)CCN1C[C@H]2C[C@H](Nc3ccc(S(=O)(=O)c4ccccc4)nn3)C[C@H]2C1 [compound 50, (3aR, 5s,6aS)-2-(3,3-dimethylbutyl)-N-(6-(phenylsulfonyl)pyridazin-3-yl)octahydrocyclopenta[c]pyrrol-5-amine] | 3% | 18 nM | 4% | 130 nM
Cc1cccnc1CN1C[C@H]2C[C@H](Nc3ccc(S(=O)(=O)C4CCCCC4)nn3)C[C@H]2C1 [compound 43, (3aR,5s,6aS)-N-(6-(cyclohexylsulfonyl)pyridazin-3-yl)-2-((3-methylpyridin-2-yl)methyl)octahydrocyclopenta[c]pyrrol-5-amine] | 5% | 76.3 nM | 11% | 1260 nM
C=CCN1C(=O)C(C)(C)c2cc(N[C@H]3C[C@@H]4CN(CCC(C)(C)C)C[C@@H]4C3)nnc21 [compound 71, 7-allyl-3-(((3aR,5s,6aS)-2-(3,3-dimethylbutyl)octahydrocyclopenta[c]pyrrol-5-yl)amino)-5,5-dimethyl-5,7-dihydro-6H-pyrrolo[2,3-c]pyridazin-6-one] | 3% | 12.4 nM | 5% | 369 nM
Fc1ccc(Cl)c(-c2ccc(N[C@H]3C[C@@H]4CN(C5CCCC5)C[C@@H]4C3)nn2)c1 [compound 74, (3aR,5s,6aS)-N-(6-(2-chloro-5-fluorophenyl)pyridazin-3-yl)-2-cyclopentyloctahydrocyclopenta[c]pyrrol-5-amine] | 2% | 27.3 nM | 4% | 933 nM
O=S(=O)(c1ccc(N[C@H]2C[C@@H]3CN(Cc4ccc5[nH]ccc5c4)C[C@@H]3C2)nn1)C1CCCCC1 [compound 47, (3aR,5s,6aS)-2-((1H-indol-5-yl)methyl)-N-(6-(cyclohexylsulfonyl)pyridazin-3-yl)octahydrocyclopenta[c]pyrrol-5-amine] | 4% | 116 nM | 9% | 1570 nM
Cc1cc(CN2C[C@H]3C[C@H](Nc4ccc(S(=O)(=O)C5CCCCC5)nn4)C[C@H]3C2)nn1C [compound 35, (3aR,5s,6aS)-N-(6-(cyclohexylsulfonyl)pyridazin-3-yl)-2-((1,5-dimethyl-1H-pyrazol-3-yl)methyl)octahydrocyclopenta[c]pyrrol-5-amine] | 6% | 181 nM | 19% | 4810 nM
O=S(=O)(c1ccccc1)c1ccc(N[C@H]2C[C@@H]3CN(CC4CCOCC4)C[C@@H]3C2)nn1 [compound 23, (3aR,5s,6aS)-N-(6-(phenylsulfonyl)pyridazin-3-yl)-2-((tetrahydro-2H-pyran-4-yl)methyl)octahydrocyclopenta[c]pyrrol-5-amine] | 4% | 65.6 nM | 11% | 1520 nM
O=S(=O)(c1ccc(N[C@H]2C[C@@H]3CN(Cc4ccc5cc[nH]c5c4)C[C@@H]3C2)nn1)C1CCCCC1 [compound 48, (3aR,5s,6aS)-2-((1H-indol-6-yl)methyl)-N-(6-(cyclohexylsulfonyl)pyridazin-3-yl)octahydrocyclopenta[c]pyrrol-5-amine] | 3% | 183 nM | 9% | 4540 nM
Fc1ccc(Cl)c(-c2ccc(N[C@H]3C[C@@H]4CN(C5CCOCC5)C[C@@H]4C3)nn2)c1 [compound 2, (3aR,5s,6aS)-N-(6-(2-chloro-5-fluorophenyl)pyridazin-3-yl)-2-(tetrahydro-2H-pyran-4-yl)octahydrocyclopenta[c]pyrrol-5-amine] | 5% | 64.7 nM | 6% | 1270 nM
CC1(C)CC(N2C[C@H]3C[C@H](Nc4ccc(S(=O)(=O)C5CCCCC5)nn4)C[C@H]3C2)CCO1 (stereo partly drawn) [compound 36, (3aR,5s,6aS)-N-(6-(cyclohexylsulfonyl)pyridazin-3-yl)-2-(2,2-dimethyltetrahydro-2H-pyran-4-yl)octahydrocyclopenta[c]pyrrol-5-amine] | 5% | 51.5 nM | 7% | 460 nM
COCCCN1C[C@H]2C[C@H](Nc3ccc(-c4cc(F)ccc4Cl)nn3)C[C@H]2C1 [compound 1, (3aR,5s,6aS)-N-(6-(2-chloro-5-fluorophenyl)pyridazin-3-yl)-2-(3-methoxypropyl)octahydrocyclopenta[c]pyrrol-5-amine] | 4% | 42.2 nM | 5% | 740 nM
CC1(C)CC(N2C[C@H]3C[C@H](Nc4ccc(-c5cc(F)ccc5Cl)nn4)C[C@H]3C2)CC(C)(C)O1 [compound 18, (3aR,5s,6aS)-N-(6-(2-chloro-5-fluorophenyl)pyridazin-3-yl)-2-(2,2,6,6-tetramethyltetrahydro-2H-pyran-4-yl)octahydrocyclopenta[c]pyrrol-5-amine] | 4% | 15 nM | 4% | 513 nM
Fc1ccc(Cl)c(-c2ccc(N[C@H]3C[C@@H]4CN(C5CCCOC5)C[C@@H]4C3)nn2)c1 (stereo partly drawn) [compound 13, (3aR,5s,6aS)-N-(6-(2-chloro-5-fluorophenyl)pyridazin-3-yl)-2-(tetrahydro-2H-pyran-3-yl)octahydrocyclopenta[c]pyrrol-5-amine] | 3% | 80.2 nM | 17% | 1400 nM
O=C(Nc1cc(F)ccc1Cl)c1ccc(N[C@H]2C[C@@H]3CN(CC4CCOCC4)C[C@@H]3C2)nn1 [compound 11, N-(2-chloro-5-fluorophenyl)-6-(((3aR,5s,6aS)-2-((tetrahydro-2H-pyran-4-yl)methyl)octahydrocyclopenta[c]pyrrol-5-yl)amino)pyridazine-3-carboxamide] | 4% | 2060 nM | 29% | > 10000 nM
Fc1ccc(Cl)c(-c2ccc(N[C@H]3C[C@@H]4CN(C5CCC(F)(F)CC5)C[C@@H]4C3)nn2)c1 [compound 67, (3aR,5s,6aS)-N-(6-(2-chloro-5-fluorophenyl)pyridazin-3-yl)-2-(4,4-difluorocyclohexyl)octahydrocyclopenta[c]pyrrol-5-amine] | 4% | 2.42 nM | 13% | 436 nM
CC1(C)CC(N2C[C@H]3C[C@H](Nc4ccc(-c5cccc(F)c5)nn4)C[C@H]3C2)CCO1 (stereo partly drawn) [compound 53, (3aR,5s,6aS)-2-(2,2-dimethyltetrahydro-2H-pyran-4-yl)-N-(6-(3-fluorophenyl)pyridazin-3-yl)octahydrocyclopenta[c]pyrrol-5-amine] | 3% | 9.28 nM | 5% | 295 nM
Cc1cc(CN2C[C@H]3C[C@H](Nc4ccc(S(=O)(=O)C5CCCCC5)nn4)C[C@H]3C2)ccc1F [compound 38, (3aR,5s,6aS)-N-(6-(cyclohexylsulfonyl)pyridazin-3-yl)-2-(4-fluoro-3-methylbenzyl)octahydrocyclopenta[c]pyrrol-5-amine] | 4% | 188 nM | 3% | 591 nM
CC(=O)Nc1ccc(-c2ccc(N[C@H]3C[C@@H]4CN(C5CCOC(C)(C)C5)C[C@@H]4C3)nn2)cn1 (stereo partly drawn) [compound 59, N-(5-(6-(((3aR,5s,6aS)-2-(2,2-dimethyltetrahydro-2H-pyran-4-yl)octahydrocyclopenta[c]pyrrol-5-yl)amino)pyridazin-3-yl)pyridin-2-yl)acetamide] | 4% | 76.1 nM | 6% | 319 nM
